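Test compounds were applied to cells in 96-well plates for 48 hours at 5 doses. GI50: concentration for 50% inhibition of growth. Definition used: TGI = concentration required for complete inhibition of growth.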
Experiments:
Experiment in all cases: NCI tumour cell line growth inhibition, 48 h
BT-549 breast = tested on: BT-549 breast
HCC-2998 colon = tested on: HCC-2998 colon
HS 578T breast = tested on: HS 578T breast
KM12 colon = tested on: KM12 colon
NCI-H226 lung = tested on: NCI-H226 lung
NCI-H460 lung = tested on: NCI-H460 lung
NCI/ADR-RES ovarian = tested on: NCI/ADR-RES ovarian
OVCAR-8 ovarian = tested on: OVCAR-8 ovarian
SW-620 colon = tested on: SW-620 colon
UO-31 renal = tested on: UO-31 renal

O=C1OCc2cc3cc4c(cc3c(-c3ccc5c(c3)OCO5)c21)OCO4 (tested in a mixture with another compound)
TGI (BT-549 breast): > 100 µM
TGI (HCC-2998 colon): > 100 µM
TGI (HS 578T breast): 80.9 µM
TGI (KM12 colon): > 100 µM
TGI (NCI-H226 lung): 29.3 µM
TGI (NCI-H460 lung): > 100 µM
TGI (NCI/ADR-RES ovarian): > 100 µM
TGI (OVCAR-8 ovarian): > 100 µM
TGI (SW-620 colon): > 100 µM
TGI (UO-31 renal): 63.8 µM

CN1CC(CNC(=O)OCc2ccccc2)CC2c3cccc4c3c(cn4C)CC21 (stereo not drawn)
GI50 (BT-549 breast): 2.07 µM
TGI (BT-549 breast): 4.62 µM
GI50 (HCC-2998 colon): 1.67 µM
TGI (HCC-2998 colon): 3.19 µM
GI50 (HS 578T breast): 1.99 µM
TGI (HS 578T breast): 6.96 µM
GI50 (KM12 colon): 2.14 µM
TGI (KM12 colon): 4.65 µM
GI50 (NCI-H226 lung): 2.82 µM
TGI (NCI-H226 lung): 9.06 µM
GI50 (NCI-H460 lung): 1.83 µM
TGI (NCI-H460 lung): 3.55 µM
GI50 (NCI/ADR-RES ovarian): 1.82 µM
TGI (NCI/ADR-RES ovarian): 4.49 µM
GI50 (OVCAR-8 ovarian): 1.75 µM
TGI (OVCAR-8 ovarian): 3.51 µM
GI50 (SW-620 colon): 1.59 µM
TGI (SW-620 colon): 3.12 µM
GI50 (UO-31 renal): 1.24 µM
TGI (UO-31 renal): 4.22 µM

COc1ccc(OC)c(CC(C)N)c1 (stereo not drawn)
TGI (HCC-2998 colon): > 100 µM
TGI (KM12 colon): > 100 µM
TGI (NCI-H226 lung): > 100 µM
TGI (NCI-H460 lung): > 100 µM
TGI (OVCAR-8 ovarian): > 100 µM
TGI (SW-620 colon): > 100 µM
TGI (UO-31 renal): > 100 µM

COc1c(OC/C=C(\C)CCC=C(C)C)ccc2ccc(=O)oc12
TGI (BT-549 breast): > 100 µM
TGI (HCC-2998 colon): > 100 µM
TGI (HS 578T breast): > 100 µM
TGI (KM12 colon): > 100 µM
TGI (NCI/ADR-RES ovarian): > 100 µM
TGI (OVCAR-8 ovarian): > 100 µM
TGI (SW-620 colon): > 100 µM
TGI (UO-31 renal): > 100 µM

CC(C)(C)OC(=O)NC1CCC(C(C)(C)C)CC1 (stereo not drawn)
TGI (HCC-2998 colon): > 100 µM
TGI (KM12 colon): > 100 µM
TGI (NCI-H226 lung): > 100 µM
TGI (NCI-H460 lung): > 100 µM
TGI (NCI/ADR-RES ovarian): > 100 µM
TGI (OVCAR-8 ovarian): > 100 µM
TGI (SW-620 colon): > 100 µM
TGI (UO-31 renal): > 100 µM

C=CCSSCC=C
TGI (BT-549 breast): > 81.5 µM
TGI (HCC-2998 colon): > 100 µM
TGI (HS 578T breast): 97.4 µM
TGI (KM12 colon): > 100 µM
TGI (NCI-H226 lung): > 92.6 µM
TGI (NCI-H460 lung): > 100 µM
TGI (NCI/ADR-RES ovarian): > 73.2 µM
TGI (OVCAR-8 ovarian): > 74.4 µM
TGI (SW-620 colon): > 100 µM
TGI (UO-31 renal): > 100 µM

CCCC(=O)O.CCCC(=O)O.CCCC(=O)O.CCCC(=O)O.[Rh].[Rh]
GI50 (BT-549 breast): 0.0314 µM
TGI (BT-549 breast): 0.101 µM
GI50 (HS 578T breast): 0.157 µM
TGI (HS 578T breast): 13 µM
GI50 (KM12 colon): 0.172 µM
TGI (KM12 colon): 0.366 µM
GI50 (NCI-H460 lung): 0.165 µM
TGI (NCI-H460 lung): 0.327 µM
GI50 (NCI/ADR-RES ovarian): 0.185 µM
TGI (NCI/ADR-RES ovarian): 0.589 µM
GI50 (OVCAR-8 ovarian): 0.0435 µM
TGI (OVCAR-8 ovarian): 0.428 µM
GI50 (SW-620 colon): 0.0188 µM
TGI (SW-620 colon): 0.0405 µM

O=C1OC2CC=CC1C2 (stereo not drawn)
TGI (HCC-2998 colon): > 100 µM
TGI (KM12 colon): > 100 µM
TGI (NCI-H226 lung): > 100 µM
TGI (NCI-H460 lung): > 100 µM
TGI (NCI/ADR-RES ovarian): > 100 µM
TGI (OVCAR-8 ovarian): > 100 µM
TGI (SW-620 colon): > 100 µM
TGI (UO-31 renal): > 100 µM

SC1CCCN(Cc2ccccc2)C1 (stereo not drawn)
TGI (BT-549 breast): > 100 µM
TGI (HCC-2998 colon): 31.4 µM
TGI (HS 578T breast): > 100 µM
TGI (KM12 colon): > 100 µM
TGI (NCI-H226 lung): > 100 µM
TGI (NCI-H460 lung): 64.7 µM
TGI (NCI/ADR-RES ovarian): > 100 µM
TGI (OVCAR-8 ovarian): > 100 µM
TGI (SW-620 colon): 72.6 µM
TGI (UO-31 renal): > 100 µM

O=C(/C=C/c1ccccc1)N1CCCCC1
TGI (BT-549 breast): > 100 µM
TGI (HCC-2998 colon): > 100 µM
TGI (HS 578T breast): > 100 µM
TGI (KM12 colon): > 100 µM
TGI (NCI-H226 lung): > 100 µM
TGI (NCI-H460 lung): > 100 µM
TGI (NCI/ADR-RES ovarian): > 100 µM
TGI (OVCAR-8 ovarian): > 100 µM
TGI (SW-620 colon): > 100 µM
TGI (UO-31 renal): > 100 µM

C=C1C(=O)OC2CC1CCC1(C)OC1CCC(C)=CCCC2(C)O (stereo not drawn)
TGI (HCC-2998 colon): 15.2 µM
TGI (KM12 colon): 12.9 µM
TGI (NCI-H226 lung): 9.17 µM
TGI (NCI-H460 lung): 7.85 µM
TGI (NCI/ADR-RES ovarian): 5.84 µM
TGI (OVCAR-8 ovarian): 7.78 µM
TGI (SW-620 colon): 3.82 µM
TGI (UO-31 renal): 18.7 µM
